Measurements taken from patent US10508118B2, “Pyrimidopyrrole compounds, method for preparing the same, pharmaceutical compositions comprising the same and uses thereof” (Xiamen University, priority 2015, dated 2019).
Like-named read-outs stand apart in the source and are kept apart here.

Tests used:
Type in all cases: cell-based
EML4-ALK-BaF3 = molecular target: T1, EML4-ALK-BaF3 (Homo sapiens, UniProt Q9UM73); test: Growth inhibition of EML4-ALK transformed BaF3 cells (MTS); conditions: for IC50: EML4-ALK-BaF3 cells, 48 hours, MTS
T1 construct: expressed in transfected cells; host or cells: Ba/F3 cells; the other entry of the earlier key: EML4 (Q9HC35, Echinoderm microtubule-associated protein-like 4)
Protocol: (§1) If compounds can inhibit the activity of ALK kinase or the activity of ALK signaling pathway, they can inhibit the growth of ALK transformed Ba/F3 cells. […] The broad-spectrum toxicity of compounds can be evaluated by determining the effect of the compounds on the growth of wild type BaF3 cells.
(§2) 1) Medium: DMEM (Dulbecco's modified eagle medium) or RPMI1640 (containing 10% fetal bovine serum, 100 μg/mL ampicillin, 100 μg/mL streptomycin).)
(§3) Reagents: MTS solution (2 mg/mL MTS (3-(4,5-dimethylthiazol-2-yl)-5-(3-carboxymethoxyphenyl)-2-(4-sulfophenyl)-2H-tetrazolium, inner salt); 100 μg/mL PES ([…])).
(§4) 3) Test of compound: Transformed Ba/F3 cells (EML4-ALK-BaF3, EML4-ALK(L1196M)-BaF3, NPM-ALK-BaF3) (2×10^4/well) were distributed into 96-well plates, with volume of cell sap of 90 μL, 10 μL of compounds in gradient concentration (the highest concentration 10 was μM, followed by 1/3 step by step dilution, a total of 8 concentrations were set, the system contained 0.1% DMSO (dimethyl sulfoxide)). The cell plates mixed with compounds were cultured in a cell incubator (37° C.; 5% CO2) for 48 hours, and the added 20 μL of MTS reaction solution, mixed and incubated in cell incubator (37° C.; 5% CO2) for 1-4 hours. The OD value at a wavelength of 490 nm was measured using eliasa (VARIOSKAN FLASH, Thermo). Three parallels were set up for each group, with a final concentration of 0.1% DMSO as negative control, and with medium without cells and compounds as blank control.
(§5) 4) Calculation of IC50 value: the semi inhibitory concentration of the compound acting on the cells was calculated using GradPad Prism 5 software according to the cell inhibitory rate measured.

wild type BaF3 = test: Growth inhibition of wild type BaF3 cells (broad-spectrum toxicity); conditions: Mus musculus, BaF3, 48 h, MTS
Protocol: (§6) The activity of compounds against ALK kinase was evaluated by inhibiting the growth of cellular ALK kinase EML4-ALK-BaF3, EML4-ALK (L1196M)-BaF3, NPM-ALK-BaF3, and wild type BaF3 (Proc. Natl. Acad. Sci. USA., 2006, 103, 3153-8.) The growth of cellular ALK kinase EML4-ALK-BaF3, EML4-ALK(L1196M)-BaF3, and NPM-ALK-BaF3 depends on their kinase activity. If compounds can inhibit the activity of ALK kinase or the activity of ALK signaling pathway, they can inhibit the growth of ALK transformed Ba/F3 cells. […] The broad-spectrum toxicity of compounds can be evaluated by determining the effect of the compounds on the growth of wild type BaF3 cells.
as §2, §3
as §4, with “control. The inhibition rate of cell growth was calculated by the following formula: Cell inhibition rate %=1−(OD experimental group−OD blank group)/(OD negative group−OD blank group)*100%” for “control.”
as §5

EML4-ALK (L1196M)-BaF3 = molecular target: T2, EML4-ALK (L1196M)-BaF3 (Homo sapiens, UniProt Q9UM73, L1196M); test: Growth inhibition of EML4-ALK (L1196M) transformed BaF3 cells (MTS); conditions: 48 hours
T2 construct: expressed in transfected cells; host or cells: Ba/F3 cells; the other entry of the earlier key: EML4 (Q9HC35, Echinoderm microtubule-associated protein-like 4)
Protocol: as §1, §2, §3, §4, §5

NPM-ALK-BaF3 = molecular target: T3, NPM-ALK-BaF3 (Homo sapiens, UniProt Q9UM73); test: Growth inhibition of NPM-ALK transformed BaF3 cells (MTS); conditions: 48 hours
T3 construct: expressed in transfected cells; host or cells: Ba/F3 cells; the other entry of the earlier key: NPM1 (P06748, Nucleophosmin)
Protocol: as §6, §2, §3
as §4, with “control. The inhibition rate of cell growth was calculated by the following formula: Cell inhibition rate %=1−(OD experimental group−OD blank group)/(OD negative group−OD blank group)*100%” for “control.”
as §5

[1] = Table 11, read-out: EML4-ALK (L1196M) (IC50 nM)
[2] = Table 12, read-out: L1196M (IC50 nM)

| IC50 (EML4-ALK-BaF3; Table 11) [nM] | IC50 (EML4-ALK (L1196M)-BaF3; [1]) [nM] | IC50 (NPM-ALK-BaF3; Table 11) [nM] | IC50 (EML4-ALK-BaF3; Table 12) [nM] | IC50 (EML4-ALK (L1196M)-BaF3; [2]) [nM] | IC50 (NPM-ALK-BaF3; Table 12) [nM] | targeting selectivity (EML4-ALK-BaF3; ratio of IC50 between wild-type BaF3 and ALK transformed BaF3 cells) | SMILES | IC50 (wild type BaF3; Table 11) [nM] | IC50 (wild type BaF3; Table 12) [nM] |
| --- | --- | --- | --- | --- | --- | --- | --- | --- | --- |
| > 10000 | > 10000 | > 10000 | – | – | – | – | CNc1nc(Nc2ccc(S(N)(=O)=O)cc2)nc2cc[nH]c12 [IQ-4] | > 10000 | – |
| 1120 | 916 | 1560 | – | – | – | – | CCC(C)OC(=O)c1ccccc1Nc1nc(Nc2ccc(N3CCN(C)CC3)cc2OC)nc2cc[nH]c12 (centres unmarked) [IH-1] | 2070 | – |
| – | – | – | > 10000 | 9700 | > 10000 | – | CC(C)Sc1ccccc1CNc1nc(Nc2ccc(S(N)(=O)=O)cc2)nc2ccn(C)c12 [IIJ-3] | – | > 10000 |
| – | – | – | ~877 | ~883 | 519 | – | CCOc1cc(C(=O)N2CCC(N3CCN(C)CC3)CC2)ccc1Nc1nc(Nc2ccccc2SC)c2c(ccn2C)n1 [IIA-5] | – | ~336 |
| – | – | – | ~2590 | 2220 | 2330 | – | COC(=O)c1ccccc1Oc1nc(Nc2ccc(N3CCC(N4CCN(C)CC4)CC3)cc2OC)nc2ccn(C)c12 [IIN-2] | – | 5630 |
| > 10000 | > 10000 | > 10000 | – | – | – | – | COC(=O)c1ccccc1Oc1nc(Nc2ccc(S(N)(=O)=O)cc2)nc2cc[nH]c12 [IV-4] | > 10000 | – |
| 669 | 451 | ~823 | – | – | – | – | COC(=O)c1sccc1Nc1nc(Nc2ccc(N3CCC(N4CCN(C)CC4)CC3)cc2OC)nc2cc[nH]c12 [IK-2] | ~913 | – |
| 1370 | 1520 | 1740 | – | – | – | – | COC(=O)c1ccccc1Nc1nc(Nc2ccc(N3CCN(C)CC3)cc2)nc2cc[nH]c12 [IG-6] | ~3140 | – |
| 1240 | 1310 | 1620 | – | – | – | – | CC(C)Sc1ccccc1CNc1nc(Nc2ccc(N3CCC(O)CC3)cc2)nc2cc[nH]c12 [IM-2] | 2900 | – |
| 649 | 761 | 1030 | – | – | – | – | CSc1ccccc1Nc1nc(Nc2ccc(N3CCC(O)CC3)cc2)nc2cc[nH]c12 [IA-2] | 1520 | – |
| – | – | – | ~949 | ~853 | ~940 | – | COc1cc(N2CCC(N3CCN(C)CC3)CC2)ccc1Nc1nc(Nc2ccccc2SC(C)C)c2c(ccn2C)n1 [IIB-2] | – | 606 |
| 7610 | ~9460 | 7670 | – | – | – | – | COC(=O)c1ccccc1Nc1nc(Nc2ccc(C(=O)N3CCOCC3)cc2OC)nc2cc[nH]c12 [IG-17] | 9390 | – |
| ~2580 | 1550 | 1780 | – | – | – | – | COC(=O)c1sccc1Nc1nc(Nc2ccc(N3CCN(C)CC3)cc2OC)nc2cc[nH]c12 [IK-1] | 1820 | – |
| – | – | – | 3020 | 4210 | 4570 | – | CC(C)Sc1ccccc1Nc1nc(Nc2ccc(S(N)(=O)=O)cc2)nc2ccn(C)c12 [IIB-4] | – | 4880 |
| – | – | – | ~1360 | 1690 | ~2740 | – | COc1cc(N2CCN(C)CC2)ccc1Nc1nc(NCc2ccccc2SC)c2c(ccn2C)n1 [III-1] | – | ~2780 |
| – | – | – | 8290 | 8990 | 11800 | – | Cn1ccc2nc(Nc3ccc(N4CCC(O)CC4)cc3)nc(Nc3ccccc3S(C)(=O)=O)c21 [IIC-3] | – | ~10600 |
| 4220 | 8700 | 8830 | – | – | – | – | CC(C)Sc1ccccc1Nc1nc(Nc2ccc(S(N)(=O)=O)cc2)nc2cc[nH]c12 [IB-3] | > 10000 | – |

| IC50 (EML4-ALK-BaF3; Table 11) [nM] | IC50 (EML4-ALK (L1196M)-BaF3; [1]) [nM] | IC50 (NPM-ALK-BaF3; Table 11) [nM] | IC50 (EML4-ALK-BaF3; Table 12) [nM] | IC50 (EML4-ALK (L1196M)-BaF3; [2]) [nM] | IC50 (NPM-ALK-BaF3; Table 12) [nM] | targeting selectivity (EML4-ALK-BaF3; ratio of IC50 between wild-type BaF3 and ALK transformed BaF3 cells) | SMILES | IC50 (wild type BaF3; Table 11) [nM] | IC50 (wild type BaF3; Table 12) [nM] |
| --- | --- | --- | --- | --- | --- | --- | --- | --- | --- |
| – | – | – | > 10000 | > 10000 | 7440 | – | CC(C)S(=O)(=O)c1ccccc1CNc1nc(Nc2ccc(N3CCC(O)CC3)cc2)nc2ccn(C)c12 [IIL-3] | – | > 10000 |
| > 10000 | > 10000 | > 10000 | – | – | – | – | CC(C)S(=O)(=O)c1ccccc1CNc1nc(Nc2ccc(N3CCC(O)CC3)cc2)nc2cc[nH]c12 [IO-3] | > 10000 | – |
| – | – | – | 644 | 978 | 536 | – | CSc1ccccc1Nc1nc(Nc2ccc(N3CCN(C)CC3)cc2)nc2ccn(C)c12 [IIA-6] | – | 1370 |
| > 10000 | > 10000 | > 10000 | – | – | – | – | CNc1nc(Nc2ccc(C(=O)N3CCOCC3)cc2OC)nc2cc[nH]c12 [IQ-5] | > 10000 | – |
| 1830 | 1530 | 1670 | – | – | – | – | COC(=O)c1ccccc1Nc1nc(Nc2ccc(OCc3ccccn3)cc2)nc2cc[nH]c12 [IG-8] | 3860 | – |
| 238 | 488 | 1290 | – | – | – | good targeting selectivity | COC(=O)c1cccc(Nc2nc(Nc3ccc(N4CCOCC4)cc3)nc3cc[nH]c23)c1 [II-5] | 1060 | – |
| 4080 | ~3350 | 5260 | – | – | – | – | CN1CCN(c2ccc(Nc3nc(Nc4ccccc4S(C)(=O)=O)c4[nH]ccc4n3)cc2)CC1 [IC-5] | 4590 | – |
| 3500 | 5020 | 5180 | – | – | – | – | CSc1ccccc1CNc1nc(Nc2ccc(N3CCC(O)CC3)cc2)nc2cc[nH]c12 [IL-3] | 5180 | – |
| – | – | – | 2370 | 3440 | 4870 | – | COC(=O)c1ccccc1Nc1nc(Nc2ccc(N3CCN(C)CC3)cc2OC)nc2ccn(C)c12 [IIG-1] | – | 5170 |
| ~1260 | 884 | 1390 | – | – | – | – | COC(=O)c1ccccc1Nc1nc(Nc2cc(C)c(C3CCN(C)CC3)cc2OC)nc2cc[nH]c12 [IG-14] | ~2550 | – |
| > 10000 | > 10000 | > 10000 | – | – | – | – | CNc1nc(Nc2ccc(N3CCC(N4CCN(C)CC4)CC3)cc2OC)nc2cc[nH]c12 [IQ-2] | > 10000 | – |
| 4480 | 9710 | > 10000 | – | – | – | – | OC1CCN(c2ccc(Nc3nc(NC4CC4)c4[nH]ccc4n3)cc2)CC1 [IS-3] | 11800 | – |
| – | – | – | 489 | 917 | 653 | – | CC(C)Sc1ccccc1Nc1nc(Nc2ccc(N3CCC(O)CC3)cc2)nc2ccn(C)c12 [IIB-3] | – | 1040 |
| – | – | – | 1620 | 1840 | 1750 | – | COC(=O)c1cccc(Nc2nc(Nc3ccc(N4CCN(C)CC4)cc3OC)nc3ccn(C)c23)c1 [IIH-1] | – | 4940 |
| – | – | – | ~2720 | ~2780 | ~1370 | – | CCOc1cc(C(=O)N2CCC(N3CCN(C)CC3)CC2)ccc1Nc1nc(Nc2ccccc2SC(C)C)c2c(ccn2C)n1 [IIB-5] | – | ~2870 |
| 2720 | 5040 | 6930 | – | – | – | – | COC(=O)c1ccccc1Nc1nc(Nc2ccc(N3CCC(O)CC3)cc2)nc2cc[nH]c12 [IG-3] | 6870 | – |
| 9800 | > 10000 | 19600 | – | – | – | – | CCOc1cc(N2CCC(O)CC2)ccc1Nc1nc(Nc2ccccc2C(=O)OC)c2[nH]ccc2n1 [IG-10] | > 10000 | – |
